Paper PMC9386376, “Discovery of spirooxindole-derived small-molecule compounds as novel HDAC/MDM2 dual inhibitors and investigation of their anticancer activity” (Frontiers in Oncology, 2022)

What was measured:
HDAC3 = HDAC3 (Homo sapiens, UniProt O15379); assay: HDAC isoform selectivity, HDAC3; type: biochemical; settings: HDAC subtype panel
MCF-7 cells [1] = assay: MTT antiproliferative assay, MCF-7; settings: Homo sapiens, MCF7, read-out: IC50 MCF-7
Description: The cytotoxicity assay was performed with MTT method as previously described ([73], [88], [89]).

MCF-7 cells [2] = assay: TUNEL staining apoptosis assay; type: cell-based, human; settings: MCF-7, 0.5 μM, 24 h, compared with SAHA and Nutlin-3
Description: (§1) It was reported that the inactivation of HDAC and/or MDM2 could increase the percentage of apoptosis cells ([85]–[87]). Therefore, three methods were applied to assess the effect of MDM2-HDAC dual inhibitor 11b on the apoptosis of MCF-7 cells. […] Subsequently, the annexin V-FITC/propidium iodide (PI) double staining method was carried out to quantitatively detect the effect of compound 11b on cell apoptosis (Figure 9B).
TUNEL assay was performed using in situ apoptosis detection kit (Promega, USA), according to the manufacturer’s protocols. […] After 24 h incubation, cells were plated onto the slides, fixed in 4% paraformaldehyde in PBS for 25 min, and then washed with PBS twice. After that, the cells were incubated in TUNEL reaction mixture at 37°C for 60 min. Then nuclei were counterstained with DAPI, and cells were checked under an immunofluorescent confocal microscopy (Olympus FV1000).

HDAC5 = HDAC5 (Homo sapiens, UniProt Q9UQL6); assay: HDAC isoform selectivity, HDAC5; type: biochemical; settings: HDAC subtype panel
Sequence of HDAC5 (Q9UQL6 whole entry, canonical isoform): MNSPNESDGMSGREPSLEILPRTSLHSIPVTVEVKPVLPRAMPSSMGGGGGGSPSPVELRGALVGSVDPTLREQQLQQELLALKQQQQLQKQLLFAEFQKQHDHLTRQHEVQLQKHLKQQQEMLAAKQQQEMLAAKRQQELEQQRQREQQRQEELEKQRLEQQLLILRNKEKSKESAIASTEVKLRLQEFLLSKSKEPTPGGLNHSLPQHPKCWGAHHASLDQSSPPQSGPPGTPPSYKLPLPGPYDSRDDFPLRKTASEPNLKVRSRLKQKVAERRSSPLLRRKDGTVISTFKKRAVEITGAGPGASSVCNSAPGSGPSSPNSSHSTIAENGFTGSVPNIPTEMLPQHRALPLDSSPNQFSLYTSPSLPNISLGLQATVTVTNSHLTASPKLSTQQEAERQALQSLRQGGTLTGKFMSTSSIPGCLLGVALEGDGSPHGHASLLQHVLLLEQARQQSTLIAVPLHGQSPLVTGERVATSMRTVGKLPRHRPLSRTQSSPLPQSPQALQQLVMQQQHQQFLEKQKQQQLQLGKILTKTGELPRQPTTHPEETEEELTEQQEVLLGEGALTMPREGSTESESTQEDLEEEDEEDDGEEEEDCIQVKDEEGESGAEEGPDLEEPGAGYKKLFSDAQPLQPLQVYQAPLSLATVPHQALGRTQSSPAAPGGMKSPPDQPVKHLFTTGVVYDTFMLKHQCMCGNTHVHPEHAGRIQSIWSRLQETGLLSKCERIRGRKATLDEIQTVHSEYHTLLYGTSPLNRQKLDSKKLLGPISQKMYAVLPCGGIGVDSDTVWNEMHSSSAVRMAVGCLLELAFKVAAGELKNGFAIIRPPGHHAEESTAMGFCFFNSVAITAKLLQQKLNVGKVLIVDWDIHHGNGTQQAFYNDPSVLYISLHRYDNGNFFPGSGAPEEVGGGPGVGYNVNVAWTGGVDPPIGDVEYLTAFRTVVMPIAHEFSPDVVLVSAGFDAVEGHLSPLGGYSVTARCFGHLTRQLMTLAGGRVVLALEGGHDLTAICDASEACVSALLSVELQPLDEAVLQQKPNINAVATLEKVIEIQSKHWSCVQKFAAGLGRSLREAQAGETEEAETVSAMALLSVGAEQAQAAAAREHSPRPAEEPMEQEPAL

HDAC4 = HDAC4 (Homo sapiens, UniProt P56524); assay: HDAC isoform selectivity, HDAC4; type: biochemical; settings: HDAC subtype panel
Sequence of HDAC4 (P56524 whole entry, canonical isoform): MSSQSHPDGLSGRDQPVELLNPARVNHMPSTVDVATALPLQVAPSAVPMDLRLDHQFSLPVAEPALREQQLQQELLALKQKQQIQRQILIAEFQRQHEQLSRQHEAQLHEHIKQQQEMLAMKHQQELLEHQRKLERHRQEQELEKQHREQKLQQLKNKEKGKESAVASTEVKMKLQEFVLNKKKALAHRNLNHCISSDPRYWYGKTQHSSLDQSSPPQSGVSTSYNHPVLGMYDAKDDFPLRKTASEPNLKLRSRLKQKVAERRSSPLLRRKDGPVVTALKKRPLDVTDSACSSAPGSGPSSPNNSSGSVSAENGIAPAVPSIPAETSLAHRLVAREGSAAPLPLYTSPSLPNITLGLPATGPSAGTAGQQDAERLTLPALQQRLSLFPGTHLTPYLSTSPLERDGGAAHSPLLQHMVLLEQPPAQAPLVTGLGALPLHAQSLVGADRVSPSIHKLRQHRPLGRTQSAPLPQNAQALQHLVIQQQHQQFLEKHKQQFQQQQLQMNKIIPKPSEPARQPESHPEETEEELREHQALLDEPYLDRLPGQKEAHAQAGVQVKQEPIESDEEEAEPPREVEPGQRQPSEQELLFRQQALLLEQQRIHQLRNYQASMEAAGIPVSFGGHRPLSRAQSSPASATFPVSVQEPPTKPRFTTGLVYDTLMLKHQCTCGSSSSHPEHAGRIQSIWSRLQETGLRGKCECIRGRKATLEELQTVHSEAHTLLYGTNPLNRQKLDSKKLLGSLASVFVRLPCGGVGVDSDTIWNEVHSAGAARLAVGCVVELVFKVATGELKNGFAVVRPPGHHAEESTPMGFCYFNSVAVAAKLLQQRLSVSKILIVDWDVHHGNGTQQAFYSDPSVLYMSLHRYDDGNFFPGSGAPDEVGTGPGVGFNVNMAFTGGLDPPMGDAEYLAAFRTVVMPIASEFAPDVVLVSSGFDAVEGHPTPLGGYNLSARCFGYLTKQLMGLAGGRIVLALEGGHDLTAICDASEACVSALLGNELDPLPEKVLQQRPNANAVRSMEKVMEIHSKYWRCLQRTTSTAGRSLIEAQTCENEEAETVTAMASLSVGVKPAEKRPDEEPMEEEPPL

HDAC11 = target: T1, HDAC11 (Homo sapiens, UniProt Q96DB2); assay: HDAC isoform selectivity, HDAC11; type: biochemical; settings: HDAC subtype panel
T1 sequence (Q96DB2 1-347): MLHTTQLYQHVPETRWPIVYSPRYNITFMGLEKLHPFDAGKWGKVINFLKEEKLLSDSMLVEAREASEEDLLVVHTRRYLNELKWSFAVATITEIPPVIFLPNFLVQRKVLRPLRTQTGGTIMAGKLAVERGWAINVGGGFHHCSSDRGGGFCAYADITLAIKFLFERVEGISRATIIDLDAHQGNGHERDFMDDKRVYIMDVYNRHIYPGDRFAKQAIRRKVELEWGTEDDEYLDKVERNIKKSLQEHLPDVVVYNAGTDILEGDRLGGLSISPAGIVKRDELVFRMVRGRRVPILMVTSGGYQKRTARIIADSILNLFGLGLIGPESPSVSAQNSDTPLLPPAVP

GST-tagged MDM2 = target: T2, GST-tagged MDM2 (Homo sapiens, UniProt Q00987); assay: HTRF enzyme inhibition assay, MDM2; type: biochemical
T2 construct: purchased Cisbio Co. Ltd
T2 sequence (Q00987 whole entry): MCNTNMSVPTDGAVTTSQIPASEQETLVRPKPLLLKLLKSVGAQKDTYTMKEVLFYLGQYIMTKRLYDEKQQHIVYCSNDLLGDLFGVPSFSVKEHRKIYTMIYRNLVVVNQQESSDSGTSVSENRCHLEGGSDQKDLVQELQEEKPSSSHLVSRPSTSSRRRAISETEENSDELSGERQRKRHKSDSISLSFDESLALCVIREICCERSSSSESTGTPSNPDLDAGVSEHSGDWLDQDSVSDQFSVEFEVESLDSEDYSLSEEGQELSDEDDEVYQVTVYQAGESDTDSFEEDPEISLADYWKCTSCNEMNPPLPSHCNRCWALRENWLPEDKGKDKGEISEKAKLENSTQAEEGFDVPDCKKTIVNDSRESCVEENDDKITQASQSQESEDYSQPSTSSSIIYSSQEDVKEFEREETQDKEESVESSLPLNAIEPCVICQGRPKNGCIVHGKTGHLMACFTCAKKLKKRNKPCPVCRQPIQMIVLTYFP

HDAC7 = target: T3, HDAC7 (Homo sapiens, UniProt Q8WUI4); assay: HDAC isoform selectivity, HDAC7; type: biochemical; settings: HDAC subtype panel
T3 sequence (Q8WUI4 1-952): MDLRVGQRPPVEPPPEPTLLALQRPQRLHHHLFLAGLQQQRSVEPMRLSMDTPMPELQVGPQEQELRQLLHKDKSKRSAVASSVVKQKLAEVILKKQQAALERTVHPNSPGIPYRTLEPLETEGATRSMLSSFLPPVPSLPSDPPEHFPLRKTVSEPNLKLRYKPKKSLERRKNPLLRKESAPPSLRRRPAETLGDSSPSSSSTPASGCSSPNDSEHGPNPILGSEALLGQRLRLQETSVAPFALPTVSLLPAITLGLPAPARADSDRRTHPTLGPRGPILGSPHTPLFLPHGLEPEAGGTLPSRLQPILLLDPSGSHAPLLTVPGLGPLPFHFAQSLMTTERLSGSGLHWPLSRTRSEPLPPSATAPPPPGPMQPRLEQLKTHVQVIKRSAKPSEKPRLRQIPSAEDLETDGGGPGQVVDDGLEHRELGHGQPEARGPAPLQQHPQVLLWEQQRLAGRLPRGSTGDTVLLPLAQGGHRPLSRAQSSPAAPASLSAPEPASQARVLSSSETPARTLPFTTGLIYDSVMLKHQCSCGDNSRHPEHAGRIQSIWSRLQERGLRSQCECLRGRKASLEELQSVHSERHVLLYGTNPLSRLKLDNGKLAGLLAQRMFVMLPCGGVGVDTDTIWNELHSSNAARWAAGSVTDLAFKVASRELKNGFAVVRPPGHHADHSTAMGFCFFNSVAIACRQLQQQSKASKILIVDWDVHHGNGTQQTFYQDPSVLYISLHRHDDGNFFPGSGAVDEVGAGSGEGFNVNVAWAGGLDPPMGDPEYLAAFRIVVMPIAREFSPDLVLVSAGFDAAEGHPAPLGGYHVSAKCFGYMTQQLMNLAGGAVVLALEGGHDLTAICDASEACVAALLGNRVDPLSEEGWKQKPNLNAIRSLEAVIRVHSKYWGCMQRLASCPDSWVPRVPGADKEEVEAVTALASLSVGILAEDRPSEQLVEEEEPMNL

MCF-7 cells [3] = assay: Annexin V-FITC/PI double staining, flow cytometry; type: cell-based, human; settings: MCF-7, 5.0 μM, 24 h
Description: as §1
Cells were collected after incubation, then fixed with 75% ice-cold ethanol and stored at -20°C for 1 h. The cells were then harvested with 0.25% trypsin (without EDTA) and centrifuged at 2000 rpm for 5min. Then, the harvested cells were washed with ice-cold PBS twice and resuspended in 500 μL of 1× binding buffer, which was then added to 5 μL of annexin V-FITC and incubated at room temperature in the dark for 15 min. After adding 10 μL of propidium iodide (PI), the cells were incubated at room temperature in the dark. After another 15 min incubation, the cells were collected and analyzed by flow cytometry.

Sequence of HDAC3 (O15379 whole entry, canonical isoform): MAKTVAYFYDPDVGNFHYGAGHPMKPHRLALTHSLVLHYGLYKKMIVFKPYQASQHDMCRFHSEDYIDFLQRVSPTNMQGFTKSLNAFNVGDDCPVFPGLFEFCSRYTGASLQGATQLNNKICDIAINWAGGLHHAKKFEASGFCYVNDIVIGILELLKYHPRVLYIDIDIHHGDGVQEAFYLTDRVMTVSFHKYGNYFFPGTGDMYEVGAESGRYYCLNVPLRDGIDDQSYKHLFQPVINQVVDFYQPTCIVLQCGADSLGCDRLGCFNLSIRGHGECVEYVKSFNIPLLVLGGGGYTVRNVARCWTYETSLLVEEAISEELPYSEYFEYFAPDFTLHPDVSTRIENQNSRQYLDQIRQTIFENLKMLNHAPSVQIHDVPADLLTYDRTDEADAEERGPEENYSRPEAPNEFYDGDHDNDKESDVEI
Sequence of HDAC3 (Q9Y618 395-489 partner limits assumed): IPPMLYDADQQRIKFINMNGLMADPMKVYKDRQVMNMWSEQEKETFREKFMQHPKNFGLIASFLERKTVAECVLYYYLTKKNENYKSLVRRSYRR

In the case of `O=C(CCCCCCC(=O)N1CCC(C(=O)Nc2ccc([C@@H]3[C@H]4CSCN4[C@]4(C(=O)Nc5cc(Cl)ccc54)[C@H]3C(=O)c3ccccc3)cc2)CC1)NO` [compound 11b, N-(4-((3R,6'S,7'R,7a'S)-6'-benzoyl-6-chloro-2-oxo-1',6',7',7a'-tetrahydro-3'H-spiro[indoline-3,5'-pyrrolo[1,2-c]thiazol]-7'-yl)phenyl)-1-(8-(hydroxyamino)-8-oxooctanoyl)piperidine-4-carboxamide], the IC50 (HDAC3) is reported as 115 ± 9 nM, the IC50 (MCF-7 cells [1]) is reported as 1370 ± 450 nM and the “apoptotic positive cells by TUNEL staining” value (MCF-7 cells [2]) is reported as “significantly higher number of apoptotic positive cells”. The IC50 (HDAC5) was over 10000 nM, the IC50 (HDAC4) was over 10000 nM and the IC50 (HDAC11) was over 10000 nM. The IC50 (GST-tagged MDM2) was 339 ± 68 nM, the IC50 (HDAC7) was over 10000 nM and the apoptotic cells (MCF-7 cells [3]) was 37.36%.
